Test system: Jurkat FADD (−/−) Cells
Assay: TNF-α induced necroptosis of Jurkat FADD-deficient cells (CellTiter-Glo cell survival)
Type: cell-based, human
Conditions: Homo sapiens, Jurkat, 13 h
In short: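 Cells in RPMI 1640 with 10% FBS were pretreated for 1 h at 37 °C with compound (12-point threefold series from 25 μM, or 0.5 μM, in triplicate). They were then stimulated with TNFα added as a 5 ng/mL solution for 13 h. Survival was read by luminescence.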

Structure (SMILES)	IC50 [nM]
CN1C(=O)C(NC(=O)c2nnc(Cc3ccccc3)[nH]2)Cc2cn(CCN3CCOCC3)c3cccc1c23 (racemic) [T-38, (±)-5-benzyl-N-(1-methyl-6-(2-morpholinoethyl)-2-oxo-2,3,4,6-tetrahydro-1H-azacyclo [4,3,2-cd]indol-3-yl)-4H-1,2,4-triazole-3-carboxamide]	< 10

Same assay, conditions: Homo sapiens; TNF-α induced necroptosis, Jurkat FADD-deficient cells, 13 hours, CellTiter-Glo; read-out: IC50

Structure (SMILES)	IC50 [nM]
CN1C(=O)C(NC(=O)c2nnc(Cc3ccccc3)[nH]2)Cc2cn(CC#N)c3cccc1c23 (racemic) [T-25, (±)-5-benzyl-N-(6-(cyanomethyl)-1-methyl-2-oxo-2,3,4,6-tetrahydro-1H-azacyclo [4,3,2-cd]indol-3-yl)-4H-1,2,4-triazole-3-carboxamide]	< 10
CN1C(=O)C(NC(=O)c2nnc(Cc3ccccc3)[nH]2)Cc2cn(-c3ncccc3C(F)F)c3cccc1c23 (racemic) [T-53, (±)-5-benzyl-N-(6-(3-(difluoromethyl)pyridin-2-yl)-1-methyl-2-oxo-2,3,4,6-tetrahydro-1H-azacyclo [4,3,2-cd]indol-3-yl)-4H-1,2,4-triazole-3-carboxamide]	< 10
CSc1cn2c3c(cccc13)N(C)C(=O)C(NC(=O)c1nnc(Cc3ccccc3)[nH]1)C2 (racemic) [T-4, (±)-5-benzyl-N-(1-methyl-7-(methylthio)-2-carbonyl-1,2,3,4-tetrahydro-[1,4]diazepino [3,2,1-hi]indol-3-yl)-4H-1,2,4-triazole-3-carboxamide]	10 to 100
CCN1C(=O)C(NC(=O)c2nnc(Cc3ccccc3)[nH]2)Cn2ccc3cccc1c32 (racemic) [T-10, (±)-5-benzyl-N-(1-ethyl-2-oxy-1,2,3,4-tetrahydro-[1,4]diazepino [3,2,1-hi]indol-3-yl)-4H-1,2,4-triazole-3-carboxamide]	10 to 100
CN1C(=O)C(NC(=O)c2nnc(Cc3ccccc3)[nH]2)Cc2c[nH]c3cccc1c23 (racemic) [T-19, (±)-5-benzyl-N-(1-methyl-2-oxo-2,3,4,6-tetrahydro-1H-azacyclo [4,3,2-cd]indol-3-yl)-4H-1,2,4-triazole-3-carboxamide]	< 10
COc1ccc(C)nc1-n1cc2c3c(cccc31)N(C)C(=O)C(NC(=O)c1nnc(Cc3ccccc3)[nH]1)C2 (racemic) [T-64, (±)-5-benzyl-N-(6-(3-methoxy-6-methylpyridin-2-yl)-1-methyl-2-oxo-2,3,4,6-tetrahydro-1H-azacyclo [4,3,2-cd]indol-3-yl)-4H-1,2,4-triazole-3-carboxamide]	< 10
CNC(=O)c1cccnc1-n1cc2c3c(cccc31)N(C)C(=O)C(NC(=O)c1nnc(Cc3ccccc3)[nH]1)C2 (racemic) [T-56, (±)-2-(3-(5-benzyl-4H-1,2,4-triazole-3-carboxamide)-1-methyl-2-oxy-1,2,3,4-tetrahydro-6H-azacyclo [4,3,2-cd]indol-6-yl)-N-methylnicotinamide]	10 to 100
CCOC(=O)c1cccnc1-n1cc2c3c(cccc31)N(C)C(=O)C(NC(=O)c1nnc(Cc3ccccc3)[nH]1)C2 (racemic) [T-103]	10 to 100
CN1C(=O)C(NC(=O)c2nnc(Cc3ccccc3)[nH]2)Cn2ccc3cc(F)cc1c32 (racemic) [T-7, (±)-5-benzyl-N-(9-fluoro-1-methyl-2-oxo-1,2,3,4-tetrahydro-[1,4]diazepino [3,2,1-hi]indol-3-yl)-4H-1,2,4-triazole-3-carboxamide]	10 to 100
CN1C(=O)C(NC(=O)c2nnc(Cc3ccccc3)[nH]2)Cc2cn(-c3ccccn3)c3cccc1c23 (racemic) [T-69, (±)-5-benzyl-N-(1-methyl-2-oxo-6-(pyridin-2-yl)-2,3,4,6-tetrahydro-1H-azacyclo [4,3,2-cd]indol-3-yl)-4H-1,2,4-triazole-3-carboxamide]	10 to 100
CN1C(=O)C(NC(=O)c2nnc(Cc3ccccc3)[nH]2)Cc2cn(-c3ccncc3)c3cccc1c23 (racemic) [T-102, (±)-5-benzyl-N-(1-methyl-2-oxo-6-(pyridin-4-yl)-2,3,4,6-tetrahydro-1H-azacyclo [4,3,2-cd]indol-3-yl)-4H-1,2,4-triazole-3-carboxamide]	10 to 100
CN1C(=O)C(NC(=O)c2nnc(Cc3ccccc3)[nH]2)Cc2cn(-c3cnccc3CO)c3cccc1c23 (racemic) [T-48, (±)-5-benzyl-N-(6-(4-(hydroxymethyl)pyridin-3-yl)-1-methyl-2-oxo-2,3,4,6-tetrahydro-1H-azacyclo [4,3,2-cd]indol-3-yl)-4H-1,2,4-triazole-3-carboxamide]	< 10
COc1ncccc1-c1cn2c3c(cccc13)N(C)C(=O)C(NC(=O)c1nnc(Cc3ccccc3)[nH]1)C2 (stereo not shown) [T-78, 5-benzyl-N-(7-(2-methoxypyridin-3-yl)-1-methyl-2-oxo-1,2,3,4-tetrahydro-[1,4]diazepino[3,2,1-hi]indol-3-yl)-4H-1,2,4-triazole-3-carboxamide]	< 10
CN1C(=O)C(NC(=O)c2nnc(Cc3ccccc3)[nH]2)Cc2c[nH]c3ccnc1c23 (racemic) [T-129, (±)-5-benzyl-N-(6-methyl-7-oxo-6,7,8,9-tetrahydro-2H-2,5,6-triazabenzene[cd]azulene-8-yl)-4H-1,2,4-triazol-3-carboxamide]	100 to 1000
CN1C(=O)C(NC(=O)c2nnc(Cc3ccccc3)[nH]2)Cc2cn(-c3ncccc3C(=O)OC3CC3)c3cccc1c23 (racemic) [T-66, (±)-2-(3-(5-benzyl-4H-1,2,4-triazole-3-carboxamide)-1-methyl-2-oxo-1,2,3,4-tetrahydro-6H-azacyclo [4,3,2-cd]indol-6-yl)nicotinic Acid Cyclopropane]	< 10
COCc1ccncc1-n1cc2c3c(cccc31)N(C)C(=O)C(NC(=O)c1nnc(Cc3ccccc3)[nH]1)C2 (racemic) [T-42, (±)-5-benzyl-N-(6-(4-(methoxymethyl)pyridin-3-yl)-1-methyl-2-oxo-2,3,4,6-tetrahydro-1H-azacyclo [4,3,2-cd]indol-3-yl)-4H-1,2,4-triazole-3-carboxamide]	< 10
CN1C(=O)[C@@H](NC(=O)c2nnc(Cc3ccccc3)[nH]2)Cn2cc(-c3cnn(C(F)F)c3)c3cccc1c32 [T-115, (S)-5-benzyl-N-(7-(1-(difluoromethyl)-1H-pyrazol-4-yl)-1-methyl-2-oxo-1,2,3,4-tetrahydro-1,4-diazepine [3,2,1-hi]indol-3-yl)-4H-1,2,4-triazole-3-carboxamide]	10 to 100
CN1C(=O)C(NC(=O)c2nnc(Cc3ccccc3)[nH]2)Cc2cn(-c3ncccc3C(N)=O)c3cccc1c23 (racemic) [T-61, (±)-2-(3-(5-benzyl-4H-1,2,4-triazole-3-carboxamide)-1-methyl-2-oxy-1,2,3,4-tetrahydro-6H-azacyclo [4,3,2-cd]indol-6-yl)nicotinamide]	10 to 100
CN1C(=O)C(NC(=O)c2nnc(Cc3ccccc3)[nH]2)Cc2cn(-c3ncn(C)n3)c3cccc1c23 (racemic) [T-73, (±)-5-benzyl-N-(1-methyl-6-(1-methyl-1H-1,2,4-triazole-3-yl)-2-oxo-2,3,4,6-tetrahydro-1H-azacyclo [4,3,2-cd]indol-3-yl)-4H-1,2,4-triazole-3-carboxamide]	10 to 100
CN1C(=O)C(NC(=O)c2nnc(Cc3ccccc3)[nH]2)Cn2ccc3cc(C#Cc4cnn(C)c4)cc1c32 (racemic) [T-9, (±)-5-benzyl-N-(1-methyl-9-((1-methyl-1H-pyrazol-4-yl)ethynyl)-2-oxy-1,2,3,4-tetrahydro-[1,4]diazepino [3,2,1-hi]indol-3-yl)-4H-1,2,4-triazole-3-carboxamide]	< 10
CN1C(=O)C(NC(=O)c2nnc(Cc3ccccc3)[nH]2)Cc2cn(-c3nccc4ccccc34)c3cccc1c23 (racemic) [T-99, (±)-5-benzyl-N-(6-(isoquinolin-1-yl)-1-methyl-2-oxo-2,3,4,6-tetrahydro-1H-aza [4,3,2-cd]indol-3-yl)-4H-1,2,4-triazole-3-carboxamide]	< 10
CN1C(=O)[C@@H](NC(=O)c2ncc(Cc3ccccc3)o2)Cn2cc(-c3cn(C)nc3C(F)(F)F)c3cccc1c32 [T-127, (S)-5-benzyl-N-(1-methyl-7-(1-methyl-3-(trifluoromethyl)-1H-pyrazol-4-yl)-2-oxo-1,2,3,4-tetrahydro-[1,4]diazepine [3,2,1-hi]indol-3-yl)oxazole-2-carboxamide]	< 10
CN1C(=O)C(NC(=O)c2nnc(Cc3ccccc3)[nH]2)Cn2ccc3cc(Cl)cc1c32 (racemic) [T-5, (±)-5-benzyl-N-(9-chloro-1-methyl-2-oxo-1,2,3,4-tetrahydro-[1,4]diazepino [3,2,1-hi]indol-3-yl)-4H-1,2,4-triazole-3-carboxamide]	100 to 1000
CN1C(=O)C(NC(=O)c2nnc(Cc3ccccc3)[nH]2)Cn2cc(Br)c3ccc(Br)c1c32 (racemic) [T-79, (±)-5-benzyl-N-(7,10-dibromo-1-methyl-2-oxo-1,2,3,4-tetrahydro-[1,4]diazepino [3,2,1-hi]indol-3-yl)-4H-1,2,4-triazole-3-carboxamide]	> 1000
CN1C(=O)C(NC(=O)c2nnc(Cc3ccccc3)[nH]2)Cc2cn(-c3cccnn3)c3cccc1c23 (racemic) [T-106, (±)-5-benzyl-N-(1-methyl-2-oxo-6-(pyridazin-3-yl)-2,3,4,6-tetrahydro-1H-aza [4,3,2-cd]indol-3-yl)-4H-1,2,4-triazole-3-carboxamide]	100 to 1000
CN1C(=O)[C@@H](NC(=O)c2nnc(Cc3ccccc3)[nH]2)Cn2cc(-c3cnn(C4CCOCC4)c3)c3cccc1c32 [T-120, (S)-5-benzyl-N-(1-methyl-2-oxo-7-(1-(tetrahydro-2H-pyran-4-yl)-1H-pyrazol-4-yl)-1,2,3,4-tetrahydro-1,4-diazepine[3,2,1-hi]indol-3-yl)-4H-1,2,4-triazole-3-carboxamide]	< 10
CN1C(=O)C(NC(=O)c2nnc(Cc3ccccc3)[nH]2)Cn2c(C(=O)O)cc3cccc1c32 (racemic) [T-13, (±)-3-(5-benzyl-4H-1,2,4-triazole-3-carboxamido)-1-methyl-2-oxy-1,2,3,4-tetrahydro-[1,4] diazepino [3,2,1-hi] indole-6-carboxylic Acid]	> 1000

From US20250049812A1, “Compounds that Inhibit Necroptosis and Their Preparation Methods” (SHANGHAI INSTITUTE OF ORGANIC CHEMISTRY, CHINESE ACADEMY OF …, priority 2021, published 2025)
